{"source": "ChEMBL document CHEMBL1150819", "about": "“Microxine, a new cdc2 kinase inhibitor from the Australian marine sponge Microxina species” (J Nat Prod, 2001)", "key": {"[1]": {"biological_target": "Cyclin-dependent kinase 1 (Homo sapiens, UniProt P06493)", "sequence (P06493 whole entry)": "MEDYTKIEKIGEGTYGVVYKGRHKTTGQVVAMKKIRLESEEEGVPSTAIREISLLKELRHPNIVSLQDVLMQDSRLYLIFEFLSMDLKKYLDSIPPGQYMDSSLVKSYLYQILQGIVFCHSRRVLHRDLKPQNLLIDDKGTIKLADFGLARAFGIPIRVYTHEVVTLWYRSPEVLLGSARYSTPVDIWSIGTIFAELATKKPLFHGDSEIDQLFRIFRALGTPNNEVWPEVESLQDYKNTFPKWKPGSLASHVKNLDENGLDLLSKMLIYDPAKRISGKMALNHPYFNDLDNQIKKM"}, "P388": {"test_system": "P388", "test": "Cytotoxicity against mouse P388 cells at 18 uM", "format": "functional, cell-based"}, "A549": {"test_system": "A549", "test": "Cytotoxicity against human A549 cells at 18 uM", "format": "functional, cell-based"}, "[2]": {"biological_target": "T1, M-phase inducer phosphatase 1 (Homo sapiens) (UniProt P30304)", "T1 sequence (whole entry)": "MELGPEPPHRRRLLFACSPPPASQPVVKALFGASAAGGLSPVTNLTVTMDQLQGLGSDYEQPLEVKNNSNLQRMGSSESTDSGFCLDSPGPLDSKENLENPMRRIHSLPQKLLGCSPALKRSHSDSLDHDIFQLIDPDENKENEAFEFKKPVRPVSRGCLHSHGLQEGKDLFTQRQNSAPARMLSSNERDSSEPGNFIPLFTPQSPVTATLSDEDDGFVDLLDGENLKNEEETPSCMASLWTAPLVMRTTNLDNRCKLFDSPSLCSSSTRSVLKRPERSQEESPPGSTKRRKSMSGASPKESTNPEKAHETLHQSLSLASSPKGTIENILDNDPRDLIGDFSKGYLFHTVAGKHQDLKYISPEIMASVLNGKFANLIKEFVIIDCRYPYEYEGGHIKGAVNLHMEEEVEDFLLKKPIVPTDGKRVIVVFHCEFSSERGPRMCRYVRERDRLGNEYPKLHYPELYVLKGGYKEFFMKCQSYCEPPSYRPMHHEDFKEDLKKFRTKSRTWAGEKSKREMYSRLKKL", "test": "Inhibition of Cdc25a up to 10 uM"}}, "note": "The source made the active and inactive calls. The rule behind the calls is not given here."}
{"molecule": "Cn1c(=O)[nH]c2ncnc(NCCS(=O)(=O)O)c21", "note": "[MICROXINE]", "values": [{"measurement": "IC50", "setting": "[1]", "value": 13, "unit": "µM"}, {"measurement": "Activity", "setting": "P388", "value": "inactive"}, {"measurement": "Activity", "setting": "A549", "value": "inactive"}, {"measurement": "Activity", "setting": "[2]", "value": "inactive"}]}
